Data taken from publication PMC9002841, “Characterization of Promising Cytotoxic Metabolites from Tabebuia guayacan Hemsl.: Computational Prediction and In Vitro Testing” (Plants, 2022).
One block for each molecule: values may come before it.

Experiments:
CDK2/CyclinA2 = target: T1, CDK2/CyclinA2 (Homo sapiens, UniProt P24941); test: In vitro CDK-2 inhibitory activity (Kinase-Glo MAX kinase assay); type: biochemical; conditions: mean ± SD
T1 construct: purchased #79599
Text: (§1) The Assay Kits are designed to measure CDK2/CyclinA2 and VEGFR-2 (KDR) activities for screening and profiling applications, using Kinase-Glo® MAX as a detection reagent. The CDK-2 Assay Kit comes in a convenient 96-well format, with enough purified recombinant CDK2/CyclinA2 enzyme, CDK substrate peptide, ATP, and kinase assay buffer for 100 enzyme reactions, while the VEGFR-2 Assay Kit comes in a convenient 96-well format, with enough purified recombinant VEGFR-2 (KDR) enzyme, PTK substrate, ATP, and kinase assay buffer for 100 enzyme reactions. […] The CDK2/CyclinA2 and VEGFR-2 (KDR) activities at a single dose concentration of 10µM were performed, where the Kinase-Glo MAX luminescence kinase assay kit (Promega#V6071) was used. The compounds were diluted in 10% DMSO and 5 µL of the dilution was added to a 50 µL reaction so that the final concentration of DMSO was 1% in all of the reactions. All of the enzymatic reactions were conducted at 30 °C for 45 min. […] After the enzymatic reactions, 50 µL of Kinase-Glo® MAX Luminescence kinase assay solution was added to each reaction and the plates were incubated for 15 min at room temperature. Luminescence signal was measured using a Bio Tek Synergy 2 microplate reader.
(§2) Data were analyzed using one-way analysis of variance (ANOVA) for multiple comparison between all compounds followed by Tukey–Kramer post-ANOVA test. […]

CDK6/Cyclin D3 = target: T2, CDK6/Cyclin D3 (Homo sapiens, UniProt Q00534); test: In vitro CDK-6 inhibitory activity (ADP-Glo kinase assay); type: biochemical; conditions: mean ± SD
T2 construct: purchased Promega V4489
T2 sequence (Q00534 whole entry): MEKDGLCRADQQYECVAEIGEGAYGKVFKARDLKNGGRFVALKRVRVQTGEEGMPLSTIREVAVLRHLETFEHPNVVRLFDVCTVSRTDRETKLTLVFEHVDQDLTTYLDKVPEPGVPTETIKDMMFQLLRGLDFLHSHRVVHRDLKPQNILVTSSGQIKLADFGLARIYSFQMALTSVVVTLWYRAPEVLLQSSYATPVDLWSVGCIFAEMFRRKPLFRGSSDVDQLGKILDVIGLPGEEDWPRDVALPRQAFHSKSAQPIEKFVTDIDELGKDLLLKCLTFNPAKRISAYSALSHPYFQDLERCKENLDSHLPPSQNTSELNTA
T2 sequence (P30281 whole entry partner): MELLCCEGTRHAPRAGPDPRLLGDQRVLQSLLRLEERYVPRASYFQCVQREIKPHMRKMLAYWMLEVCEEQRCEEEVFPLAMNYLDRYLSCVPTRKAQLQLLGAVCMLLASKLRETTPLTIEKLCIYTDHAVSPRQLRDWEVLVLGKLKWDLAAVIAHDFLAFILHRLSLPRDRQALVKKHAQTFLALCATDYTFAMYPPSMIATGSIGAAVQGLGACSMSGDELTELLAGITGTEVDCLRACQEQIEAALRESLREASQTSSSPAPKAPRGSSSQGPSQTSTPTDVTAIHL
Method: Data were analyzed using one-way analysis of variance (ANOVA) for multiple comparison between all compounds followed by Tukey–Kramer post-ANOVA test. The differences were considered statistically significant at p < 0.05.

VEGFR-2 (KDR) = target: T3, VEGFR-2 (KDR) (Homo sapiens, UniProt P35968); test: In vitro VEGFR-2 inhibitory activity (Kinase-Glo MAX kinase assay); type: biochemical; conditions: mean ± SD
T3 construct: purchased #40325
T3 sequence (P35968 20-1356): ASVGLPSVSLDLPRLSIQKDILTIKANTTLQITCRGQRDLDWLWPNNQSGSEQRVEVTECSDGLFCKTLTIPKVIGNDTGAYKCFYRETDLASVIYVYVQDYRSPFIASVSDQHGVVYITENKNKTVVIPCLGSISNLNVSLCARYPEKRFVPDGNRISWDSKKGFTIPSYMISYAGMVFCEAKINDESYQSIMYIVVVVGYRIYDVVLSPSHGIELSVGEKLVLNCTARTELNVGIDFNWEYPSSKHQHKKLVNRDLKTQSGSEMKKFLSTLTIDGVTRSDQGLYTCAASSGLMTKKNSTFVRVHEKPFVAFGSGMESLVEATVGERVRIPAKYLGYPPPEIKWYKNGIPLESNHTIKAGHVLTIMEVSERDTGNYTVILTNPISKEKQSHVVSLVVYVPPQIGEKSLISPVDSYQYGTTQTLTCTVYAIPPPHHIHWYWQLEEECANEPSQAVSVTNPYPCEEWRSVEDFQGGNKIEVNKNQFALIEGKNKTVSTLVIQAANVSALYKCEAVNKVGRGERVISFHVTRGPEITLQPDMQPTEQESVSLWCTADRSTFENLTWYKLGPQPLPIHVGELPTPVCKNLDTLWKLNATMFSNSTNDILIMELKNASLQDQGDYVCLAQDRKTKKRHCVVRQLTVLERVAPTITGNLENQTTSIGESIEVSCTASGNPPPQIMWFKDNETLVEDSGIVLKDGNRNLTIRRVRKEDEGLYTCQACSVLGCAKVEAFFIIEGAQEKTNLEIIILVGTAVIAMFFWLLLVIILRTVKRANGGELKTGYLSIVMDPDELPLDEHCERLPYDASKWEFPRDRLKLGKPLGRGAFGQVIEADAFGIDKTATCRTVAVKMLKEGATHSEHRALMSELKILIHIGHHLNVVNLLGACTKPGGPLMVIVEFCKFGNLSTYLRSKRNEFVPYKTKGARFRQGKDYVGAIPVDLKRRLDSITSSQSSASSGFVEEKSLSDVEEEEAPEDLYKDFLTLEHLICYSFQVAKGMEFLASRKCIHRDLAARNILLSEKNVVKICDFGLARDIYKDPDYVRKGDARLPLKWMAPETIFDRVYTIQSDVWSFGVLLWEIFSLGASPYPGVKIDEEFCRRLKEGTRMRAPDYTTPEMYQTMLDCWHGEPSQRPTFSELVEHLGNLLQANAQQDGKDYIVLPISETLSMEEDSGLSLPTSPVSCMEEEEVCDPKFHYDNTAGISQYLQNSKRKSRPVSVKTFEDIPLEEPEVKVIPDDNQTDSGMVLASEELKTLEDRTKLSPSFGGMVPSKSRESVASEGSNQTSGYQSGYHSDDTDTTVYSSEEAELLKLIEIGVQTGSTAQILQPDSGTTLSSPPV
Text: as §1, §2

topoisomerase-1 = conditions: cited from earlier work

IC50 (CDK2/CyclinA2): 239 nM
SMILES: C[C@H]1[C@H](C)CC[C@]2(C(=O)O)CC[C@]3(C)C(=CC[C@@H]4[C@@]5(C)C[C@@H](O)[C@H](O)C(C)(C)[C@@H]5CC[C@]43C)[C@H]12 [Compound 3, corosolic acid]

IC50 (CDK6/Cyclin D3): 355 nM
IC50 (VEGFR-2 (KDR)): 193 nM
SMILES: O=c1c(OC2OCC(O)C(O)C2O)c(-c2ccc(O)c(O)c2)oc2cc(O)cc(O)c12 (stereo not drawn) [Compound 10, quercetin 3-O-β-xyloside]

SMILES: CC[C@H](CC[C@@H](C)[C@H]1CC[C@H]2[C@@H]3CC=C4C[C@@H](O)CC[C@]4(C)[C@H]3CC[C@]12C)C(C)C [Compound 1, β-sitosterol]
IC50 (CDK2/CyclinA2): 581 nM

SMILES: O=c1cc(-c2ccc(O)c(O)c2)oc2cc(OC3O[C@@H](CO)[C@H](O)[C@@H](O)[C@@H]3O)cc(O)c12 (stereo partly drawn) [Compound 16, luteolin-7-O-β-glucoside]
inhibitory activity against topoisomerase-1 (topoisomerase-1): especially poisonous
